# Like-named read-outs stand apart in the source and are kept apart here.
# Legend:
# Test in all cases: SelectScreen Adapta
# Format in all cases: biochemical
# PIK3C2A (PI3K-C2 alpha) = PIK3C2A (PI3K-C2 alpha) (Homo sapiens, UniProt O00443)
# Description: (§1) 133 protein kinases and 7 lipid kinases were counterscreened, with 1938 used at 1 μM, using the Adapta, Lantha and Z-LYTE assays (SelectScreen Kinase Profiling Service; Thermofisher – experimental details of these assays can be found here: https://www.thermofisher.com/uk/en/home/industrial/pharma-biopharma/drug-discovery-development/target-and-lead-identification-and-validation/kinasebiology/kinase-activity-assays.html. The tree represention in KinMap[59] generated courtesy of Cell Signaling Technology, Inc. (www.cellsignal.com). mTORC1 (mTOR/RAPTOR/LST8) protein complex and ATM kinase and substrates were produced as previously described[57],[60]. Screening of 1938 was conducted using SuperSep Phos-Tag 50 μmol/l 100 x 100 x 6.6 mm 17-well (192-18001/199-18011) gels. For ATM assays, 100 nM ATM was incubated for 30 min at 30°C with 5 μM GST-p53 and 1 mM ATP, in the absence or presence of 200 μM 1938 in ATM Kinase Buffer (50 mM HEPES pH 7.5, 100 mM NaCl, 10% glycerol, 2 mM […], 5 mM MgCl2). As a positive control for ATM activation, the same reaction was carried out with 100 nM ATM/5 μM GST-p53/1 mM ATP in the presence of 100 nM Mre11-Rad50-Nbs1 (MRN) complex, a known activator of ATM[61]. For mTORC1 assays, 50 nM mTORC1 complex (mTOR/LST8/RAPTOR) was incubated for 3 h at 30°C with 15 μM 4E-BP1, 10 mM MgCl2 and 250 μM ATP, in the absence or presence of 200 μM 1938. As a ‘positive’ control, a higher concentration (150 nM) of mTORC1 complex (mTOR/LST8/RAPTOR) was incubated for 3 h at 30°C with 15 μM 4E-BP1, 10 mM MgCl2 and 250 μM ATP. Kinase reactions were quenched by addition of SDS-PAGE Loading Buffer (as per manufacturer’s instructions) and freezing at -20°C before being run on the Phos-tag gels at 150 V for 90 min. Gels were then stained using InstantBlue™ Coomassie, and quantified using BioRad Image Lab Software. Kinase assays were carried out in triplicate.
# PI4KB (PI4K beta) = PI4KB (PI4K beta) (Homo sapiens, UniProt Q9UBF8)
# Description: as §1
# IRAK1 = IRAK1 (Homo sapiens, UniProt P51617)
# Description: as §1
# GSG2 (Haspin) = target: T1, GSG2 (Haspin) (Homo sapiens, UniProt Q8TF76)
# T1 sequence (Q8TF76 1-798): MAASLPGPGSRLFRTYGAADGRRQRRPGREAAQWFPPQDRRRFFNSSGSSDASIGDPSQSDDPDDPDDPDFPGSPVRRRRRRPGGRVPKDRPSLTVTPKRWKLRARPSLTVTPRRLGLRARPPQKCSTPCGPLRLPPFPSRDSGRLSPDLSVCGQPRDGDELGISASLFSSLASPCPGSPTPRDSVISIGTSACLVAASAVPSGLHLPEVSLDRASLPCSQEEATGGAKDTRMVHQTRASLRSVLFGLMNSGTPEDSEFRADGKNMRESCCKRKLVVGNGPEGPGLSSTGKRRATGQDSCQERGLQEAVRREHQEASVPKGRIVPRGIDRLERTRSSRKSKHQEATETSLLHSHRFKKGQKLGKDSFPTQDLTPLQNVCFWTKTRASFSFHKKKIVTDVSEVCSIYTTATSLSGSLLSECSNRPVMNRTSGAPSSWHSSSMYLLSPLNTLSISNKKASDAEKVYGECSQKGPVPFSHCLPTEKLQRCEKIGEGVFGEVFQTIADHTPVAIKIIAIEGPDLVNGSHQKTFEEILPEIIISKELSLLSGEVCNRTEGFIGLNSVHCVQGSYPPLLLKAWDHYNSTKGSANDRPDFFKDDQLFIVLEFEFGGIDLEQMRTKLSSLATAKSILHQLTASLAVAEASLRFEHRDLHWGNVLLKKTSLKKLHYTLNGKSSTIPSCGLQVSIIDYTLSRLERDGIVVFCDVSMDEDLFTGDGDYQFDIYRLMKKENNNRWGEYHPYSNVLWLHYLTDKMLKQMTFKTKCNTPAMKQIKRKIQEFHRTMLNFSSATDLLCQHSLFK
# Description: as §1
# PIK3C3 (hVPS34) = PIK3C3 (hVPS34) (Homo sapiens, UniProt Q8NEB9)
# Description: as §1
# CDK9/cyclin T1 = CDK9/cyclin T1 (Homo sapiens, UniProt P50750)
# Description: as §1
# CDK7/cyclin H/MNAT1 = CDK7/cyclin H/MNAT1 (Homo sapiens, UniProt P50613)
# Description: as §1
# PIK3CG (p110 gamma) = PIK3CG (p110 gamma) (Homo sapiens, UniProt P48736)
# PIK3CG (p110 gamma), sequence (P48736 whole entry): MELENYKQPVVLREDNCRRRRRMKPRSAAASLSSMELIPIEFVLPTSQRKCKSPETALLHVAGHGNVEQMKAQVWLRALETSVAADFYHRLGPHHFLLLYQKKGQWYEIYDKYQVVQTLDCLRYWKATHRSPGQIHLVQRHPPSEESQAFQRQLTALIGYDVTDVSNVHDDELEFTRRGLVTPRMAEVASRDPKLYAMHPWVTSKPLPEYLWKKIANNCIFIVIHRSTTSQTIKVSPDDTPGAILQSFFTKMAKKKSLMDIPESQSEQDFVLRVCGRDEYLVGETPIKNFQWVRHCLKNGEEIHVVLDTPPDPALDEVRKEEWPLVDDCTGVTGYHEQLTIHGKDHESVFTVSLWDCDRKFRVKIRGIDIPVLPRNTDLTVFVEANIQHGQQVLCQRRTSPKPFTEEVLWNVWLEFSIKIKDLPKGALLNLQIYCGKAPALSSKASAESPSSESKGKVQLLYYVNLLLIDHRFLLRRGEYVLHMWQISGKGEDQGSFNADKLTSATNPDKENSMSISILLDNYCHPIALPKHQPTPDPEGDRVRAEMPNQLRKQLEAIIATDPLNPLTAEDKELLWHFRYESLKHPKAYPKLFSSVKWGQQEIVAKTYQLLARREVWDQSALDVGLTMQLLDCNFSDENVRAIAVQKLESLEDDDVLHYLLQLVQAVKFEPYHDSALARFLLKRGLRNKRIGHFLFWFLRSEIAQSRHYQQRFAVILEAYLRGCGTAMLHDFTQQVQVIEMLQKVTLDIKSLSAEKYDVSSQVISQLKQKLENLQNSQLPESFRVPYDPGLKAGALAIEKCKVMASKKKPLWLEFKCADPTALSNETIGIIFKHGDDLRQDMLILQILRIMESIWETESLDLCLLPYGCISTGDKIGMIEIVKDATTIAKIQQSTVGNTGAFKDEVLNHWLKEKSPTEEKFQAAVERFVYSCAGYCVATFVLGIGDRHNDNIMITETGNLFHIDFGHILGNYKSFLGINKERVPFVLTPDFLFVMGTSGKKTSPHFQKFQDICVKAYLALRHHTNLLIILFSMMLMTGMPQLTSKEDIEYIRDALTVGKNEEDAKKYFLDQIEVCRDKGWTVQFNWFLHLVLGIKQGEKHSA
# Description: as §1
# [1] = target: PIK3CB/PIK3R1 (p110 beta/p85 alpha) (Homo sapiens, UniProt P42338)
# Description: as §1
# CAMK1 (CaMK1) = CAMK1 (CaMK1) (Homo sapiens, UniProt Q14012); conditions: 1000 nM, [ATP] 10 μM
# Description: as §1
# [2] = target: PIK3CD/PIK3R1 (p110 delta/p85 alpha) (Homo sapiens, UniProt O00329)
# PIK3CD/PIK3R1 (p110 delta/p85 alpha), sequence (O00329 whole entry): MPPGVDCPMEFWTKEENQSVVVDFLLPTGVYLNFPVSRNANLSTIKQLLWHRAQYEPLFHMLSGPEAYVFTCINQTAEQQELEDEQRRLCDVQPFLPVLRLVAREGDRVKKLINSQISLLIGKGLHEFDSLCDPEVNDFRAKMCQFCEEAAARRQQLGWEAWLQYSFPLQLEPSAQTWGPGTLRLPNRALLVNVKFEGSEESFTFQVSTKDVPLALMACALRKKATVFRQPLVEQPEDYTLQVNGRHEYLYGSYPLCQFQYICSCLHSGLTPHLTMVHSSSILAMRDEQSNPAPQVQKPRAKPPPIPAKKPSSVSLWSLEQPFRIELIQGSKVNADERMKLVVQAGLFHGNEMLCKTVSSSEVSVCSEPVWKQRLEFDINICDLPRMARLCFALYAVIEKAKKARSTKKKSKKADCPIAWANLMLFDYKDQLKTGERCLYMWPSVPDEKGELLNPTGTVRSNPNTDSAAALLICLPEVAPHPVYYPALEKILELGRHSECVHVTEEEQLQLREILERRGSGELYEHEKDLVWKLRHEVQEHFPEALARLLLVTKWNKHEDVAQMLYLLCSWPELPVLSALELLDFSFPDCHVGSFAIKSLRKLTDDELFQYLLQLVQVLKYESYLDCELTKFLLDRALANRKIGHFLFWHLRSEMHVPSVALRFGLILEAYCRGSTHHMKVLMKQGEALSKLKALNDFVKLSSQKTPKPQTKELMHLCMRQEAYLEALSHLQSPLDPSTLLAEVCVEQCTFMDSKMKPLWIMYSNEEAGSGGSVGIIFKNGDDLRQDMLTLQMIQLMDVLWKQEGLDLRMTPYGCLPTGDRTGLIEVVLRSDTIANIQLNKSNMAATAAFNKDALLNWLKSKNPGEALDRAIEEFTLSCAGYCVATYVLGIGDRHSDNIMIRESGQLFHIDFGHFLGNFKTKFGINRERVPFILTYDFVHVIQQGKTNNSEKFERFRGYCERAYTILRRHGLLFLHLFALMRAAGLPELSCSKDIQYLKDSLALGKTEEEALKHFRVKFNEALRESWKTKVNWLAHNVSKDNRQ
# PIK3CD/PIK3R1 (p110 delta/p85 alpha), sequence (P27986 whole entry partner): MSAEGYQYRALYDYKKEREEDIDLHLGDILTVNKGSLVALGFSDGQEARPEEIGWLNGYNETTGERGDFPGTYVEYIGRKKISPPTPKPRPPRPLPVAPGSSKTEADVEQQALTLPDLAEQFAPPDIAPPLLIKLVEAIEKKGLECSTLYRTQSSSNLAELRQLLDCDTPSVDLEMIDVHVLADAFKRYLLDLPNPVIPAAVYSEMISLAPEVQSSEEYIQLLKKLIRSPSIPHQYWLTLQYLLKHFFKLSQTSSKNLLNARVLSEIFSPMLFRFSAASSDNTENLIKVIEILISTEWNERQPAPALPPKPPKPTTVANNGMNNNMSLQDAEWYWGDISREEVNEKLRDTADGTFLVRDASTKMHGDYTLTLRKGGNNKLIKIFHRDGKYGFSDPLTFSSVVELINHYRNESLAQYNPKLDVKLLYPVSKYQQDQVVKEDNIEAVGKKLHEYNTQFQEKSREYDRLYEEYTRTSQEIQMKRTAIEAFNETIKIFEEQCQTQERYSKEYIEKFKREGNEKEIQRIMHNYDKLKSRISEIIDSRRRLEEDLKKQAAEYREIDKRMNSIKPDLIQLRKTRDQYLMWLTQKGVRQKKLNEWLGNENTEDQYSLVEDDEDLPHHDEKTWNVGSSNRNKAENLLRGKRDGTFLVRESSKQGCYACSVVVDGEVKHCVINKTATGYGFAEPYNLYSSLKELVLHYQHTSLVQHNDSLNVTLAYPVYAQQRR
# Description: as §1
# PIK3C2A (PI3K-C2 alpha), sequence (O00443 whole entry): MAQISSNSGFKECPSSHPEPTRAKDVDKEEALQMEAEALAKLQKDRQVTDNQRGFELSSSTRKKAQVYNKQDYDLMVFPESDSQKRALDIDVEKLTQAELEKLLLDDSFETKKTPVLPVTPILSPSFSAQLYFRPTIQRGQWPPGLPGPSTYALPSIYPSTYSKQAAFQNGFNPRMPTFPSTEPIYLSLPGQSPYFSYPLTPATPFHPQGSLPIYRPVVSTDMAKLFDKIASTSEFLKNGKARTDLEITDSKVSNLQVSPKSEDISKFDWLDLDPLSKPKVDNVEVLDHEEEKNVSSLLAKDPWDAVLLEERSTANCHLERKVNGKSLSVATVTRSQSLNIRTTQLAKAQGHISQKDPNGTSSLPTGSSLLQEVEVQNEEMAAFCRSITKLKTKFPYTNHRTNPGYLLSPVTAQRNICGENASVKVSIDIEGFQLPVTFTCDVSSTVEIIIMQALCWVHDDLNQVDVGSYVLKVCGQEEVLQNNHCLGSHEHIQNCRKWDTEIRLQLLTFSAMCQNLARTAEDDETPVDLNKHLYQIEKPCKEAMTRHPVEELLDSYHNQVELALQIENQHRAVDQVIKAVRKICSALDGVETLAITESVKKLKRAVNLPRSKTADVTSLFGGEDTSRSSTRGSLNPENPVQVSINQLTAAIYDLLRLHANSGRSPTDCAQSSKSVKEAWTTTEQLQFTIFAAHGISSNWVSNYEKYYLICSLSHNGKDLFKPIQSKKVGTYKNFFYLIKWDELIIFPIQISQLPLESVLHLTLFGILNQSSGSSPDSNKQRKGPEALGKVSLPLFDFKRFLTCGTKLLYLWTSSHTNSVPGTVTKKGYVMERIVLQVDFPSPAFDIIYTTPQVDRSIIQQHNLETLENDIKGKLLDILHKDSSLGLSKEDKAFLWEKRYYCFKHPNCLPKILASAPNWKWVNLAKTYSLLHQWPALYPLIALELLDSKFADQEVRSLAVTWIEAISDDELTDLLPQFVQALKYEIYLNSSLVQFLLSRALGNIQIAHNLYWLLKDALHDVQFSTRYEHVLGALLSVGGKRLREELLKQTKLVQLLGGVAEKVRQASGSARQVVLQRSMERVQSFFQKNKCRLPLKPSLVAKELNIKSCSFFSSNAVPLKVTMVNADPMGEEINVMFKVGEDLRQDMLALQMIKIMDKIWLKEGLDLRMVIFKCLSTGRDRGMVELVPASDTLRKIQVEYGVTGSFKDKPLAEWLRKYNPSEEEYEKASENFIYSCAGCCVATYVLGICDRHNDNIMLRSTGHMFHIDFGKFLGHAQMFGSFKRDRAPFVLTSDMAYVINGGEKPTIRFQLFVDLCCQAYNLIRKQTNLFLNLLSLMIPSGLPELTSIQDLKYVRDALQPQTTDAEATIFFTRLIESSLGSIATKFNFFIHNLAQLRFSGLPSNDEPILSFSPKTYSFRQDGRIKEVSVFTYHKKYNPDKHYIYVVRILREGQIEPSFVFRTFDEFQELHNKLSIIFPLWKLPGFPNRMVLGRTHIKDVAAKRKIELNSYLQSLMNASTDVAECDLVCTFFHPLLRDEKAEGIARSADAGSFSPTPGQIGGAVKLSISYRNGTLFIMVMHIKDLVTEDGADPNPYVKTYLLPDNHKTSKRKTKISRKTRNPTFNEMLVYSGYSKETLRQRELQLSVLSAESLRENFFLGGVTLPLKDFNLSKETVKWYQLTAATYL
structure (smiles),measurement,setting,value
CCN1CCN(c2ccc(Nc3cc(Nc4cccc5c4N(C(C)=O)CC5)ccn3)cc2)CC1 [Compound 1938],inhibition at 1 µM,PIK3C2A (PI3K-C2 alpha); read-out: % Inhibition Point 1,2%
same,inhibition at 1 µM,PIK3C2A (PI3K-C2 alpha); read-out: % Inhibition Point 2,3.23%
same,inhibition at 1 µM,PIK3C2A (PI3K-C2 alpha); read-out: % Inhibition mean,2.57%
same,inhibition at 1 µM,PI4KB (PI4K beta); read-out: % Inhibition Point 1,-1.1%
same,inhibition at 1 µM,PI4KB (PI4K beta); read-out: % Inhibition Point 2,0.786%
same,inhibition at 1 µM,PI4KB (PI4K beta); read-out: % Inhibition mean,-0.157%
same,inhibition at 1 µM,IRAK1; read-out: % Inhibition Point 1,29%
same,inhibition at 1 µM,IRAK1; read-out: % Inhibition Point 2,20%
same,inhibition at 1 µM,IRAK1; read-out: % Inhibition mean,25%
same,inhibition at 1 µM,GSG2 (Haspin); read-out: % Inhibition Point 1,-18%
same,inhibition at 1 µM,GSG2 (Haspin); read-out: % Inhibition Point 2,2.17%
same,inhibition at 1 µM,GSG2 (Haspin); read-out: % Inhibition mean,-8%
same,inhibition at 1 µM,PIK3C3 (hVPS34); read-out: % Inhibition Point 1,3.28%
same,inhibition at 1 µM,PIK3C3 (hVPS34); read-out: % Inhibition Point 2,7.6%
same,inhibition at 1 µM,PIK3C3 (hVPS34); read-out: % Inhibition mean,5.44%
same,inhibition at 1 µM,CDK9/cyclin T1; read-out: % Inhibition Point 1,10%
same,inhibition at 1 µM,CDK9/cyclin T1; read-out: % Inhibition Point 2,2%
same,inhibition at 1 µM,CDK9/cyclin T1; read-out: % Inhibition mean,6%
same,inhibition at 1 µM,CDK7/cyclin H/MNAT1; read-out: % Inhibition Point 1,-6.51%
same,inhibition at 1 µM,CDK7/cyclin H/MNAT1; read-out: % Inhibition Point 2,4%
same,inhibition at 1 µM,CDK7/cyclin H/MNAT1; read-out: % Inhibition mean,-1.27%
same,inhibition at 1 µM,PIK3CG (p110 gamma); read-out: % Inhibition Point 1,4.3%
same,inhibition at 1 µM,PIK3CG (p110 gamma); read-out: % Inhibition Point 2,13%
same,inhibition at 1 µM,PIK3CG (p110 gamma); read-out: % Inhibition mean,8.53%
same,inhibition at 1 µM,[1]; read-out: % Inhibition Point 1,2.51%
same,inhibition at 1 µM,[1]; read-out: % Inhibition Point 2,0.803%
same,inhibition at 1 µM,[1]; read-out: % Inhibition mean,1.66%
same,inhibition at 1 µM,CAMK1 (CaMK1); read-out: % Inhibition Point 1,26%
same,inhibition at 1 µM,CAMK1 (CaMK1); read-out: % Inhibition Point 2,23%
same,inhibition at 1 µM,CAMK1 (CaMK1); read-out: % Inhibition mean,25%
same,inhibition at 1 µM,[2]; read-out: % Inhibition Point 1,11%
same,inhibition at 1 µM,[2]; read-out: % Inhibition Point 2,-5%
same,inhibition at 1 µM,[2]; read-out: % Inhibition mean,2.81%
